This is an account of results in ChEMBL document CHEMBL6078719, “Discovery of acetohydroxyacid synthase inhibitors as anti-tuberculosis lead compounds from natural products” (Bioorg Med Chem, 2025).

Values after ≈ are worked out from the molar mass of the structure shown. Active and inactive are the calls of the source. The calls are words filed in the database; no cut-off is given here.

The nature of data set [1]: Inhibition of Mycobacterium tuberculosis Acetohydroxy acid synthase using pyruvate as substrate at 40 uM incubated for 10 mins followed by substrate addition by colorimetric assay relative to control.
A short description of data set [2]: Inhibition of Mycobacterium tuberculosis Acetohydroxy acid synthase using pyruvate as substrate incubated for 10 mins followed by substrate addition by colorimetric assay.
For data set [3], the system named is Mycolicibacterium smegmatis. The experiment in a line: Antibacterial activity against Mycobacterium smegmatis assessed as inhibition of bacterial growth incubated for 3 days by alamar blue staining based assay. The settings on record: 72 h, time 3 day. The format is functional. In general terms: The colour change of resazurin is a common sign of viable cells or microbes.

Data set [4] relates to Mycobacterium tuberculosis. The experiment in a line: Antibacterial activity against Mycobacterium tuberculosis assessed as inhibition of bacterial growth incubated for 3 days by alamar blue staining based assay. The following applies: 72 h, time 3 day. It counts as functional.
Data set [5] is described as follows: Binding affinity to Mycobacterium tuberculosis Acetohydroxy acid synthase assessed as binding constant by isothermal titration calorimetry. (In ITC the heat of successive injections is recorded.)
Data set [6] concerns Mycobacterium tuberculosis. The experiment in a line: Binding affinity to Mycobacterium tuberculosis Acetohydroxy acid synthase assessed as change in enthalpy by isothermal titration calorimetry.
The test system of data set [7] is Mycobacterium tuberculosis. The experiment in a line: Binding affinity to Mycobacterium tuberculosis Acetohydroxy acid synthase assessed as gibbs free energy change by isothermal titration calorimetry.
Data set [8] deals with Mycolicibacterium smegmatis. The experiment in a line: Synergistic antibacterial activity against Mycobacterium smegmatis assessed as inhibition of bacterial growth incubated for 3 days in presence of rifampicin by alamar blue staining based assay. It counts as functional, organism-based. The settings on record: time 3.0 day.
For data set [9], the system named is Mycobacterium tuberculosis. The experiment in a line: Synergistic antibacterial activity against Mycobacterium tuberculosis assessed as inhibition of bacterial growth incubated for 3 days in presence of rifampicin by alamar blue staining based assay. The format is functional, organism-based. The settings on record: time 3.0 day.
Data set [10] in a line: Cytotoxicity against human THP-1 cells incubated for 48 hrs by CCK8 assay. It counts as toxicity, cell-based. A general note: Tetrazolium assays rely on reduction of a dye to a coloured formazan, in cell work by metabolically active cells.
A short description of data set [11]: Selectivity index, ratio of IC50 for cytotoxicity against human THP-1 cells to MIC90 for antimycobacterial activity against Mycobacterium tuberculosis. It counts as toxicity, cell-based. The settings on record: read-out: Selectivity Index.
In data set [12] the test system is Mycobacterium tuberculosis. The experiment in a line: Antimycobacterial activity against Mycobacterium tuberculosis assessed as inhibition of bacterial growth. The format is functional.

By inhibition is commonly meant the percentage by which the read-out fell short of the control. In general, IC50 refers to the concentration at which inhibition is half-maximal. A higher IC50 goes with a need for much substance. By MIC is commonly meant the least concentration at which growth counts as inhibited. In the case of `COc1ccc(-c2oc3c(CCC(C)(C)O)c(O)cc(O)c3c(=O)c2O)cc1`, the inhibition in [1] was > 90%. Moreover, in data set [2], half-maximal inhibition (IC50) required 32.4 µM. In data set [3], the MIC is > 5000 µM.
Usually Kd stands for a measure of binding affinity in units of concentration. The term MIC90 denotes an inhibitory concentration at the 90% level, which refers to growth in some studies and to a panel of isolates in others. As to `CC1=C(O)C(=O)C=C2C1=CC=C1[C@@]2(C)CC[C@@]2(C)[C@@H]3C[C@](C)(C(=O)O)CC[C@]3(C)CC[C@]12C` [CELASTROL], the inhibition in [1] was > 90%. In data set [2], this compound came in with a half-inhibitory concentration (IC50) of 0.81 µM. The results for the MIC in data set [3] and in data set [4] were 62.5 µM (≈ 28.2 µg/mL) and 80 µM (≈ 36 µg/mL), respectively. Moreover, the Kd in [5] is 1.9 µM. Moreover, the deltaH in data set [6] was -9.87 kcal/mol. The deltaG in data set [7] was -7.81 kcal/mol. In addition, the outcome in data set [8] and in [9] was inactive. Half-maximal inhibition in data set [10] (IC50 at 48 h) required 12.5 µM. In [11], the selectivity ratio was < 1. The MIC90 in data set [12] was 80 µM (≈ 36 µg/mL).
Take `CCCCCCCCCCCC1=C(O)C(=O)C=C(O)C1=O` [EMBELIN]: the inhibition in [1] was > 90%. Half-maximal inhibition in data set [2] (IC50) was put at 9.46 µM. In [3], the MIC was > 5000 µM.
`O=C(/C=C/c1ccc(O)c(O)c1/C=C/c1ccc(O)c(O)c1)O[C@H](Cc1ccc(O)c(O)c1)C(=O)O` [SALVIANOLIC ACID A]: the inhibition in data set [1] was > 90%. In data set [2], the IC50 is 0.84 µM. Also, the MIC stood at 125 µM (≈ 61.8 µg/mL) in data set [3] and 312 µM (≈ 155 µg/mL) in data set [4]. Moreover, the result in data set [8] and in data set [9] was inactive.
In the case of `COC(=O)c1ccccc1S(=O)(=O)NC(=O)Nc1nc(C)cc(C)n1` [SULFOMETURON METHYL], the inhibition in [1] was > 90%. This compound also yielded an IC50 in data set [2] of 3.68 µM. Moreover, in data set [3], the MIC was 7.8 µM (≈ 2.84 µg/mL).
